Among the data in patent US12226424B2, “Target protein degradation compounds, their anti-tumor use, their intermediates and use of intermediates” (ShanghaiTech University, priority 2018, dated 2025) are DC50 values, retold here.

Structures are written as SMILES. Bounds are passed on as bounds.

The assay concerns CDK4/6 protein. As to the kind of experiment: Western-blot determination of CDK4/6 protein degradation (DC50) in T-47D cells. In kind it is cell-based, human. Conditions: 24 h drug treatment, read-out: DC50(nM)/T-47D cell line.
In the case of `CC(=O)c1c(C)c2cnc(Nc3ccc(N4CCN(C(=O)CCSc5cccc6c5C(=O)N(C5CCC(=O)NC5=O)C6=O)CC4)cn3)nc2n(C2CCCC2)c1=O` (centres unmarked) [SIAIS184086, 4-((3-(4-(6-((6-acetyl-8-cyclopentyl-5-methyl-7-oxo-7,8-dihydropyrido[2,3-d]pyrimidin-2-yl)amino)pyridin-3-yl)piperazin-1-yl)-3-oxopropyl)thio)-2-(2,6-dioxopiperidin-3-yl)isoindoline-1,3-dione], the DC50 was greater than 500 nM.
Then `CC(=O)c1c(C)c2cnc(Nc3ccc(N4CCN(C(=O)CCCSc5cccc6c5C(=O)N(C5CCC(=O)NC5=O)C6=O)CC4)cn3)nc2n(C2CCCC2)c1=O` (centres unmarked) [SIAIS184087, 4-((4-(4-(6-((6-acetyl-8-cyclopentyl-5-methyl-7-oxo-7,8-dihydropyrido [2,3-d]pyrimidin-2-yl)amino)pyridin-3-yl)piperazin-1-yl)-4-oxobutyl)thio)-2-(2,6-dioxo Piperidin-3-yl)isoindoline-1,3-dione], with 1 to 10 nM.
Take `CC(=O)c1c(C)c2cnc(Nc3ccc(N4CCN(C(=O)CCCCSc5cccc6c5C(=O)N(C5CCC(=O)NC5=O)C6=O)CC4)cn3)nc2n(C2CCCC2)c1=O` (centres unmarked) [SIAIS184088, 4-((5-(4-(6-((6-acetyl-8-cyclopentyl-5-methyl-7-oxo-7,8-dihydropyrido[2,3-d]pyrimidin-2-yl)amino)pyridin-3-yl)piperazin-1-yl)-5-oxopentyl)thio)-2-(2,6-dioxopiperidin-3-yl)isoindoline-1,3-dione]: the DC50 was in the range of 1 to 10 nM.
Then `CC(=O)c1c(C)c2cnc(Nc3ccc(N4CCN(C(=O)CCCCCSc5cccc6c5C(=O)N(C5CCC(=O)NC5=O)C6=O)CC4)cn3)nc2n(C2CCCC2)c1=O` (centres unmarked) [SIAIS184089, 4-((6-(4-(6-((6-acetyl-8-cyclopentyl-5-methyl-7-oxo-7,8-dihydropyrido[2,3-d]pyrimidin-2-yl)amino)pyridin-3-yl)piperazin-1-yl)-6-oxohexyl)thio)-2-(2,6-dioxopiperidin-3-yl)isoindoline-1,3-dione], with 1 to 10 nM; and `CC(=O)c1c(C)c2cnc(Nc3ccc(N4CCN(C(=O)CSc5cccc6c5CN(C5CCC(=O)NC5=O)C6=O)CC4)cn3)nc2n(C2CCCC2)c1=O` (centres unmarked) [SIAIS219051, 3-(4-((2-(4-(6-((6-acetyl-8-cyclopentyl-5-methyl-7-oxo-7,8-dihydropyrido[2,3-d]pyrimidin-2-yl)amino)pyridin-3-yl)piperazin-1-yl)-2-oxoethyl)thio)-1-oxoisoindolin-2-yl)piperidine-2,6-dione], with less than 1 nM.
For `CC(=O)c1c(C)c2cnc(Nc3ccc(N4CCN(C(=O)CCSc5cccc6c5CN(C5CCC(=O)NC5=O)C6=O)CC4)cn3)nc2n(C2CCCC2)c1=O` (centres unmarked) [SIAIS219052, 3-(4-((3-(4-(6-((6-acetyl-8-cyclopentyl-5-methyl-7-oxo-7,8-dihydropyrido[2,3-d]pyrimidin-2-yl)amino)pyridin-3-yl)piperazin-1-yl)-3-oxopropyl)thio)-1-oxoisoindolin-2-yl)piperidine-2,6-dione], the DC50 is less than 1 nM.
Then `CC(=O)c1c(C)c2cnc(Nc3ccc(N4CCN(C(=O)CCCSc5cccc6c5CN(C5CCC(=O)NC5=O)C6=O)CC4)cn3)nc2n(C2CCCC2)c1=O` (centres unmarked) [SIAIS219053, 3-(4-((4-(4-(6-((6-acetyl-8-cyclopentyl-5-methyl-7-oxo-7,8-dihydropyrido[2,3-d]pyrimidin-2-yl)amino)pyridin-3-yl)piperazin-1-yl)-4-oxobutyl)thio)-1-oxoisoindolin-2-yl)piperidine-2,6-dione], with less than 1 nM; and `CC(=O)c1c(C)c2cnc(Nc3ccc(N4CCN(C(=O)CCCCCSc5cccc6c5CN(C5CCC(=O)NC5=O)C6=O)CC4)cn3)nc2n(C2CCCC2)c1=O` (centres unmarked) [SIAIS219054, 3-(4-((6-(4-(6-((6-acetyl-8-cyclopentyl-5-methyl-7-oxo-7,8-dihydropyrido[2,3-d]pyrimidin-2-yl)amino)pyridin-3-yl)piperazin-1-yl)-6-oxohexyl)thio)-1-oxoisoindolin-2-yl)piperidine-2,6-dione], with less than 1 nM; and `CC(=O)c1c(C)c2cnc(Nc3ccc(N4CCN(C(=O)CCCCCCSc5cccc6c5CN(C5CCC(=O)NC5=O)C6=O)CC4)cn3)nc2n(C2CCCC2)c1=O` (centres unmarked) [SIAIS219055, 3-(4-((7-(4-(6-((6-acetyl-8-cyclopentyl-5-methyl-7-oxo-7,8-dihydropyrido[2,3-d]pyrimidin-2-yl)amino)pyridin-3-yl)piperazin-1-yl)-7-oxoheptyl)thio)-1-oxoisoindolin-2-yl)piperidine-2,6-dione], with less than 1 nM.
Then `CC(=O)c1c(C)c2cnc(Nc3ccc(N4CCN(C(=O)COCCOCCSc5cccc6c5C(=O)N(C5CCC(=O)NC5=O)C6=O)CC4)cn3)nc2n(C2CCCC2)c1=O` (centres unmarked) [SIAIS219059, 4-((2-(2-(2-(4-(6-((6-acetyl-8-cyclopentyl-5-methyl-7-oxo-7,8-dihydropyrido[2,3-d]pyrimidin-2-yl)amino)pyridin-3-yl)piperazin-1-yl)-2-oxoethoxy)ethoxy)ethyl)thio)-2-(2,6-dioxopiperidin-3-yl)isoindoline-1,3-dione], with 10 to 50 nM; and `CC(=O)c1c(C)c2cnc(Nc3ccc(N4CCN(C(=O)COCCOCCOCCSc5cccc6c5C(=O)N(C5CCC(=O)NC5=O)C6=O)CC4)cn3)nc2n(C2CCCC2)c1=O` (centres unmarked) [SIAIS219060, 4-((2-(2-(2-(2-(4-(6-((6-acetyl-8-cyclopentyl-5-methyl-7-oxo-7,8-dihydropyrido[2,3-d]pyrimidin-2-yl)amino)pyridin-3-yl)piperazin-1-yl)-2-oxoethoxy)ethoxy)ethoxy)ethyl)thio)-2-(2,6-dioxopiperidin-3-yl)isoindoline-1,3-dione], with 1 to 10 nM.
As for `CC(=O)c1c(C)c2cnc(Nc3ccc(N4CCN(C(=O)COCCOCCOCCOCCSc5cccc6c5C(=O)N(C5CCC(=O)NC5=O)C6=O)CC4)cn3)nc2n(C2CCCC2)c1=O` (centres unmarked) [SIAIS219061, 4-((14-(4-(6-((6-acetyl-8-cyclopentyl-5-methyl-7-oxo-7,8-dihydropyrido[2,3-d]pyrimidin-2-yl)amino)pyridin-3-yl)piperazin-1-yl)-14-oxo-3,6,9,12-tetraoxatetradecyl)thio)-2-(2,6-dioxopiperidin-3-yl)isoindoline-1,3-dione], the figure is 1 to 10 nM.
`CC(=O)c1c(C)c2cnc(Nc3ccc(N4CCN(C(=O)COCCOCCOCCOCCOCCSc5cccc6c5C(=O)N(C5CCC(=O)NC5=O)C6=O)CC4)cn3)nc2n(C2CCCC2)c1=O` (centres unmarked) [SIAIS219062, 4-((17-(4-(6-((6-acetyl-8-cyclopentyl-5-methyl-7-oxo-7,8-dihydropyrido[2,3-d]pyrimidin-2-yl)amino)pyridin-3-yl)piperazin-1-yl)-17-oxo-3,6,9,12,15-pentaoxaheptadecyl)thio)-2-(2,6-dioxopiperidin-3-yl)isoindoline-1,3-dione]: the DC50 lay in the range of 1 to 10 nM.
Then `CC(=O)c1c(C)c2cnc(Nc3ccc(N4CCN(CCSc5cccc6c5C(=O)N(C5CCC(=O)NC5=O)C6=O)CC4)cn3)nc2n(C2CCCC2)c1=O` (centres unmarked) [SIAIS219063, 4-((2-(4-(6-((6-acetyl-8-cyclopentyl-5-methyl-7-oxo-7,8-dihydropyrido[2,3-d]pyrimidin-2-yl)amino)pyridin-3-yl)piperazin-1-yl)ethyl)thio)-2-(2,6-dioxopiperidin-3-yl)isoindoline-1,3-dione], with less than 1 nM.
As for `CN(C)C(=O)c1cc2cnc(Nc3ccc(N4CCN(C(=O)CSc5cccc6c5CN(C5CCC(=O)NC5=O)C6=O)CC4)cn3)nc2n1C1CCCC1` (centres unmarked) [SIAIS219086, 7-cyclopentyl-2-((5-(4-(2-((2-(2,6-dioxopiperidin-3-yl)-1-oxoisoindolin-4-yl)thio)acetyl)piperazin-1-yl)pyridin-2-yl)amino)-N,N-dimethyl-7H-pyrrolo[2,3-d]pyrimidine-6-carboxamide], the figure is less than 1 nM; as for `CN(C)C(=O)c1cc2cnc(Nc3ccc(N4CCN(C(=O)CCSc5cccc6c5CN(C5CCC(=O)NC5=O)C6=O)CC4)cn3)nc2n1C1CCCC1` (centres unmarked) [SIAIS219087, 7-cyclopentyl-2-((5-(4-(3-((2-(2,6-dioxopiperidin-3-yl)-1-oxoisoindolin-4-yl)thio)propanoyl)piperazin-1-yl)pyridin-2-yl)amino)-N,N-dimethyl-7H-pyrrolo[2,3-d]pyrimidine-6-carboxamide], less than 1 nM.
In the case of `CN(C)C(=O)c1cc2cnc(Nc3ccc(N4CCN(C(=O)CCCSc5cccc6c5CN(C5CCC(=O)NC5=O)C6=O)CC4)cn3)nc2n1C1CCCC1` (centres unmarked) [SIAIS219088, 7-cyclopentyl-2-((5-(4-(4-((2-(2,6-dioxopiperidin-3-yl)-1-oxoisoindolin-4-yl)thio)butanoyl)piperazin-1-yl)pyridin-2-yl)amino)-N,N-dimethyl-7H-pyrrolo[2,3-d]pyrimidine-6-carboxamide], the DC50 was in the range of 1 to 10 nM.
As for `CN(C)C(=O)c1cc2cnc(Nc3ccc(N4CCN(C(=O)CCCCSc5cccc6c5CN(C5CCC(=O)NC5=O)C6=O)CC4)cn3)nc2n1C1CCCC1` (centres unmarked) [SIAIS219089, 7-cyclopentyl-2-((5-(4-(5-((2-(2,6-dioxopiperidin-3-yl)-1-oxoisoindolin-4-yl)thio)pentanoyl)piperazin-1-yl)pyridin-2-yl)amino)-N,N-dimethyl-7H-pyrrolo[2,3-d]pyrimidine-6-carboxamide], the figure is 1 to 10 nM.
Then `CN(C)C(=O)c1cc2cnc(Nc3ccc(N4CCN(C(=O)CCCCCSc5cccc6c5CN(C5CCC(=O)NC5=O)C6=O)CC4)cn3)nc2n1C1CCCC1` (centres unmarked) [SIAIS219090, 7-cyclopentyl-2-((5-(4-(6-((2-(2,6-dioxopiperidin-3-yl)-1-oxoisoindolin-4-yl)thio)hexanoyl)piperazin-1-yl)pyridin-2-yl)amino)-N,N-dimethyl-7H-pyrrolo[2,3-d]pyrimidine-6-carboxamide], with 0.2 to 1 nM; and `CN(C)C(=O)c1cc2cnc(Nc3ccc(N4CCN(C(=O)CCCCCCSc5cccc6c5CN(C5CCC(=O)NC5=O)C6=O)CC4)cn3)nc2n1C1CCCC1` (centres unmarked) [SIAIS219091, 7-cyclopentyl-2-((5-(4-(7-((2-(2,6-dioxopiperidin-3-yl)-1-oxoisoindolin-4-yl)thio)heptanoyl)piperazin-1-yl)pyridin-2-yl)amino)-N,N-dimethyl-7H-pyrrolo[2,3-d]pyrimidine-6-carboxamide], with less than 1 nM.
